Assay results published in patent US4554353A, “2,5-Pyrrolidinedione derivatives useful as antiarrhythmic agents” (G. D. Searle & Co., priority 1984, dated 1985).

Key:
[1] = system: Ventricular arrhythmia; assay: Harris Dog Efficacy (ventricular arrhythmia induced by 2-stage coronary artery ligation in unanesthetized dogs); type: in vivo; conditions: for activity in the dog ventricular arrhythmia test: active = at least 25% reduction in ectopic beats for at least 10 minutes in half or more of dogs; for minimal effective dose: Canis lupus familiaris, 10 min, intravenous, unanesthetized dogs, at least 25% reduction in ectopic beats for at least 10 minutes in half or more of dogs
Description: Ventricular arrhythmia is induced by a 2-stage ligation of the anterior descending branch of the left coronary artery in each of two or more unanesthetized dogs. The test compound is administered intravenously at 5 mpk doses to a maximum dose of 20 mpk.

[2] = molecular target: Muscarinic Receptor; assay: Muscarinic Receptor Binding Assay (3H-QNB displacement, rat brain homogenate); conditions: inhibition of specific 3H-QNB binding by 50%, 0.15 nM 3H-QNB, pH 7.4, 25° C., 1 hour

Compound | activity in the dog ventricular arrhythmia test [1] | minimal effective dose [1] | IC50 [2]
C=C[C@H]1C[N@@]2CC[C@H]1C[C@@H]2[C@@H](O)c1ccnc2ccc(OC)cc12 [quinidine, reference compound] | active | – | –
CCN(CC)CCNC(=O)c1ccc(N)cc1 [procainamide, reference compound] | active | – | –
CC(C)N(CCC1(c2ccccc2Cl)CC(=O)NC1=O)C(C)C (stereo not shown) [Example 4, 3-[2-[bis(1-methylethyl)-amino]ethyl]-3-(2-chlorophenyl)-2,5-pyrrolidinedione] | – | 2.8 mg/kg | 300 nM
CC1CCCC(C)N1CCC1(c2ccccc2Cl)CC(=O)NC1=O (stereo not shown) [Example 6, 3-(2-chlorophenyl)-3-[2-(2,6-dimethyl-1-piperidinyl)ethyl]-2,5-pyrrolidinedione] | – | 1.3 mg/kg | 470 nM
CC(C)N(CCC(C(N)=O)(c1ccccc1)c1ccccn1)C(C)C (stereo not shown) [Norpace, reference compound] | active | – | –
CCN(CC)CCC1(c2ccccc2)CC(=O)NC1=O (stereo not shown) [Formula II (Prior Art), reference compound] | – | 2 mg/kg | 20 nM
CC(C)N(CCC1(c2ccccc2)CC(=O)NC1=O)C(C)C (stereo not shown) [Example 2, 3-[2-[bis(1-methylethyl)amino]ethyl]-3-phenyl-2,5-pyrrolidinedione] | – | 10 mg/kg | 140 nM
CCCN(CCC)CCCC1(c2ccccc2Cl)CC(=O)NC1=O (stereo not shown) [Example 14] | – | 1 mg/kg | 3600 nM
